{"source": "BindingDB's records for patent US12486274", "about": "(Verge Analytics, 2025)", "biological_target": "1-phosphatidylinositol 3-phosphate 5-kinase (Homo sapiens, UniProt Q9Y2I7)", "sequence (Q9Y2I7 whole entry)": "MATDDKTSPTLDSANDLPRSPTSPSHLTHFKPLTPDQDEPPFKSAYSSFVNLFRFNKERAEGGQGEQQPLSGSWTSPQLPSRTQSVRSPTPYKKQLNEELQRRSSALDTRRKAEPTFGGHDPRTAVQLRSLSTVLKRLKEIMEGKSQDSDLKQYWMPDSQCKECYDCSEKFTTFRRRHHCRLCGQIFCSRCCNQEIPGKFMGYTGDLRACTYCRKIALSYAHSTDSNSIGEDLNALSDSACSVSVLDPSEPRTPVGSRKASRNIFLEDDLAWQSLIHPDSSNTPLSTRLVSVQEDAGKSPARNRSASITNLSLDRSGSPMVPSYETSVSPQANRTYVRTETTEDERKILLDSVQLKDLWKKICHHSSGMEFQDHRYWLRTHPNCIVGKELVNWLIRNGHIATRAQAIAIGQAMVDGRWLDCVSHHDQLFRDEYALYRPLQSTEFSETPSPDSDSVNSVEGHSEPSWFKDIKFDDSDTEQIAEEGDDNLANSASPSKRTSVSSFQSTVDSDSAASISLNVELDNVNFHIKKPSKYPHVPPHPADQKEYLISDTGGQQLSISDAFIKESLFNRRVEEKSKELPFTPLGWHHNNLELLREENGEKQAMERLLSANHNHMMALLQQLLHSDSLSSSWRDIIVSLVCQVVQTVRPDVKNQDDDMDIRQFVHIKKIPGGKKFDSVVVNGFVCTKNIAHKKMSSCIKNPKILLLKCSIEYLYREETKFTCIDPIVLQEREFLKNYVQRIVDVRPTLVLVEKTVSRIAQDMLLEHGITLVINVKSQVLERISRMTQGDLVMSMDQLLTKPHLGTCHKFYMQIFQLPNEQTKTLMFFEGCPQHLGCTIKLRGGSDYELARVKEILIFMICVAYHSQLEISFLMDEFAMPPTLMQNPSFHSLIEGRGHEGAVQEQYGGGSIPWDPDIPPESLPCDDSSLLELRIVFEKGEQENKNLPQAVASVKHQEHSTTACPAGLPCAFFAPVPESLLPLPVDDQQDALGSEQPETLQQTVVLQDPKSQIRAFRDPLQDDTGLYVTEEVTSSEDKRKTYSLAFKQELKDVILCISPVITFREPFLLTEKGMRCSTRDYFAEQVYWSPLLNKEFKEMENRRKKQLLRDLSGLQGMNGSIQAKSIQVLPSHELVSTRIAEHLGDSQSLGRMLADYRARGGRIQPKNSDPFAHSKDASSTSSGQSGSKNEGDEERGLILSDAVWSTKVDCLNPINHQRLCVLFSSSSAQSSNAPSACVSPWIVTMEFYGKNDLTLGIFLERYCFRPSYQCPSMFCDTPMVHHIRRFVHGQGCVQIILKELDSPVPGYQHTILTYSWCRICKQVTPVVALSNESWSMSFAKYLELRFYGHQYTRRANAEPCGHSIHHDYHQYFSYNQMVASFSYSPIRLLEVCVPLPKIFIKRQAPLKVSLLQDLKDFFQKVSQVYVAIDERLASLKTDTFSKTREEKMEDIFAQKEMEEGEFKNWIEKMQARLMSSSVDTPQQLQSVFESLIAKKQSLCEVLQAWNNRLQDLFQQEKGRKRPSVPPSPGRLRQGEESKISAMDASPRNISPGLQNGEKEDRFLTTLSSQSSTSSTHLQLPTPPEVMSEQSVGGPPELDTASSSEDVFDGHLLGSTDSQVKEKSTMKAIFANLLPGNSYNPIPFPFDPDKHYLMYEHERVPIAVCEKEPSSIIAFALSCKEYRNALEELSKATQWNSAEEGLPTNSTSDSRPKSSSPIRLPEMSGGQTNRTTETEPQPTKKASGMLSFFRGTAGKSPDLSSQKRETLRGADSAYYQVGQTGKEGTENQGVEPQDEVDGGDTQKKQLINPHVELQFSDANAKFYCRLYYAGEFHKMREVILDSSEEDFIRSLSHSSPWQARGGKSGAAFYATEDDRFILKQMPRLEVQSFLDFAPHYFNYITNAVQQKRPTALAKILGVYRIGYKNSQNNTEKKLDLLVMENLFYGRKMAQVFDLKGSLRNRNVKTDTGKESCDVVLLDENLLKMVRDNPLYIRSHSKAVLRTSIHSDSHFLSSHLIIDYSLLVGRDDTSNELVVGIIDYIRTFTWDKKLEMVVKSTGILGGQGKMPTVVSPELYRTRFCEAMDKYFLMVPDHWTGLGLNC", "assay": "Inhibition of PIKfyve", "method": "The kinase reactions were assembled in 384-well plates (Greiner) in a total volume of […] as follows. Kinase protein was pre-diluted in an assay buffer comprising 25 mM HEPES, pH 7.5, 1 mM DTT, 2.5 mM MgCl2, and 2.5 mM MnCl2, and 0.005% Triton X-100, and dispensed into a 384-well plate (10 μL per well). Test compounds were serially pre-diluted in DMSO and added to the protein samples by acoustic dispensing (Labcyte Echo). The concentration of DMSO was equalized to 1% in all samples. All test compounds were tested at 12 concentrations. Apilimod was used as a reference compound and was tested in identical manner in each assay plate. Control samples (0%-inhibition, in the absence of inhibitor, DMSO only) and 100%-inhibition (in the absence of enzyme) were assembled in replicates of four and were used to calculate %-inhibition in the presence of compounds. The reactions were initiated by addition of 10 μL of 2× PI3P/PS substrate supplemented with ATP. The final concentration of enzyme was 2 nM, the final concentration of ATP was […], and the final concentration of PI3P/PS substrate was 1 μM (PI3P). The kinase reactions were allowed to proceed for 3 h at room temperature. Following incubation, the reactions were quenched by addition of […] of termination buffer (100 mM HEPES, pH 7.5, 0.01% Triton X-100, 20 mM EDTA)."}
{"smiles": "Nc1ccc(-c2cc3nc(-n4ccc(-c5ccccc5)n4)cc(N4CCOCC4)n3n2)cn1", "note": "[US12486274, Compound 98]", "values": [{"measurement": "IC50", "value": 29.9, "unit": "nM"}]}
